From ChEMBL document CHEMBL1201862, “PubChem BioAssay data set” (2004)
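Results reflect a 48-hour exposure of cells in 96-well plates to compound at five concentrations. Abbreviation: GI50, concentration required for 50% inhibition of growth.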 Active and inactive are the calls of the source. No stated cut-off is given here; in the data, active = GI50 up to about 1.1 µM and inactive = higher.

Columns and labels:
Experiment in all cases: inhibition of tumour cell growth, NCI panel, 48 h
[1] = tested on: CCRF-CEM
[2] = tested on: NCI-H23
[3] = tested on: HOP-62
[4] = tested on: HCT-116
[5] = tested on: PC-3
[6] = tested on: 786-0
[7] = tested on: SNB-19
[8] = tested on: OVCAR-3
[9] = tested on: IGROV-1
[10] = tested on: MDA-MB-231
[11] = tested on: MCF7
[12] = tested on: LOX IMVI
[13] = tested on: OVCAR-4
[14] = tested on: Hs-578T
[15] = tested on: SF-295
[16] = tested on: NCI/ADR-RES
[17] = tested on: NCI-H522
[18] = tested on: SK-MEL-2
[19] = tested on: SK-OV-3
[20] = tested on: A498

In the case of `c1ccc(C(C2=Nc3cccc4cccc(c34)N2)c2ccccc2)cc1`, the GI50 [1] is reported as 39.2 µM (inactive), the GI50 [2] is reported as 28.1 µM (inactive) and the GI50 [3] is reported as 23.1 µM (inactive). The GI50 [4] was > 10 µM (inactive), the GI50 [5] was 23 µM (inactive) and the GI50 [6] was 26.2 µM (inactive). The GI50 [7] was 37.8 µM (inactive), the GI50 [8] was 20.3 µM (inactive) and the GI50 [9] was 33.9 µM (inactive). For the same compound, the GI50 [10] was 30.8 µM (inactive), the GI50 [11] was 31.8 µM (inactive) and the GI50 [12] was 18.7 µM (inactive). For the same compound, the GI50 [13] was 53.5 µM (inactive), the GI50 [14] was 27 µM (inactive) and the GI50 [15] was 21.1 µM (inactive). The GI50 [16] was 21.2 µM (inactive), the GI50 [17] was 16.6 µM (inactive) and the GI50 [18] was 20.9 µM (inactive). For the same compound, the GI50 [19] was 21.5 µM (inactive).
In the case of `CN(C)C(=S)N/N=C\C(=N/NC(=S)N(C)C)c1ccccc1`, the GI50 [2] is reported as 9.46 µM (inactive), the GI50 [3] is reported as 6.05 µM (inactive) and the GI50 [4] is reported as 3.52 µM (inactive). For the same compound, the GI50 [6] was 7.33 µM (inactive), the GI50 [7] was 17 µM (inactive) and the GI50 [8] was 2.7 µM (inactive). The GI50 [9] was 3.7 µM (inactive), the GI50 [10] was 19.3 µM (inactive) and the GI50 [11] was 4.03 µM (inactive). The GI50 [12] was 9.02 µM (inactive), the GI50 [13] was 5.74 µM (inactive) and the GI50 [14] was 4.57 µM (inactive). For the same compound, the GI50 [20] was 7.21 µM (inactive), the GI50 [15] was 4.93 µM (inactive) and the GI50 [16] was 2.98 µM (inactive). The GI50 [17] was 3.15 µM (inactive), the GI50 [18] was 3.96 µM (inactive) and the GI50 [19] was 12.3 µM (inactive).
In the case of `Cc1cc(=O)oc2cc(OCc3c(F)cccc3Cl)ccc12`, the GI50 [2] is reported as > 100 µM (inactive), the GI50 [3] is reported as 13 µM (inactive) and the GI50 [4] is reported as 4.41 µM (inactive). The GI50 [5] was 3.56 µM (inactive), the GI50 [6] was 11.6 µM (inactive) and the GI50 [7] was 20.9 µM (inactive). For the same compound, the GI50 [8] was > 100 µM (inactive), the GI50 [9] was 9.46 µM (inactive) and the GI50 [10] was 4.07 µM (inactive). For the same compound, the GI50 [11] was 4.6 µM (inactive), the GI50 [12] was 11.5 µM (inactive) and the GI50 [13] was 48.4 µM (inactive). The GI50 [14] was 21.9 µM (inactive), the GI50 [20] was > 100 µM (inactive) and the GI50 [15] was 17.5 µM (inactive). For the same compound, the GI50 [17] was 11.1 µM (inactive) and the GI50 [18] was 4.55 µM (inactive).
`NC(C(F)(F)F)(C(F)(F)F)P(=O)(Cc1ccccc1)Cc1ccccc1` was tested, and the GI50 [1] was > 100 µM (inactive), the GI50 [2] was > 100 µM (inactive) and the GI50 [3] was 83.2 µM (inactive). For the same compound, the GI50 [4] was > 100 µM (inactive), the GI50 [5] was > 100 µM (inactive) and the GI50 [6] was 66.1 µM (inactive). For the same compound, the GI50 [7] was > 100 µM (inactive), the GI50 [8] was > 100 µM (inactive) and the GI50 [9] was > 100 µM (inactive). The GI50 [10] was > 100 µM (inactive), the GI50 [11] was > 100 µM (inactive) and the GI50 [12] was > 100 µM (inactive). For the same compound, the GI50 [13] was > 100 µM (inactive), the GI50 [14] was 58.1 µM (inactive) and the GI50 [15] was > 100 µM (inactive). The GI50 [16] was > 100 µM (inactive), the GI50 [18] was > 100 µM (inactive) and the GI50 [19] was > 100 µM (inactive).
For `O=C(O)C1OC1C(=O)O` (stereo not drawn), the GI50 [2] was > 100 µM (inactive), the GI50 [3] was > 100 µM (inactive) and the GI50 [4] was > 100 µM (inactive). The GI50 [6] was > 100 µM (inactive), the GI50 [7] was > 100 µM (inactive) and the GI50 [8] was > 100 µM (inactive). The GI50 [9] was > 100 µM (inactive), the GI50 [10] was > 100 µM (inactive) and the GI50 [11] was > 100 µM (inactive). The GI50 [12] was > 100 µM (inactive), the GI50 [13] was > 100 µM (inactive) and the GI50 [14] was > 100 µM (inactive). The GI50 [20] was > 100 µM (inactive), the GI50 [15] was > 100 µM (inactive) and the GI50 [16] was > 100 µM (inactive). The GI50 [17] was > 100 µM (inactive), the GI50 [18] was > 100 µM (inactive) and the GI50 [19] was > 100 µM (inactive).
In the case of `C=C1C(=O)O[C@@H]2C=C(C)C3=CC(=O)[C@](C)(C[C@H](OC(=O)/C(C)=C\C)[C@@H]12)O3`, the GI50 [1] is reported as 0.209 µM (active), the GI50 [2] is reported as 1.22 µM (inactive) and the GI50 [3] is reported as 3.14 µM (inactive). The GI50 [4] was 0.282 µM (active), the GI50 [5] was 1.51 µM (inactive) and the GI50 [6] was 0.374 µM (active). The GI50 [9] was 1.03 µM (active), the GI50 [10] was 0.759 µM (active) and the GI50 [11] was 0.41 µM (active). For the same compound, the GI50 [12] was 0.299 µM (active), the GI50 [13] was 4.88 µM (inactive) and the GI50 [14] was 2.85 µM (inactive). The GI50 [15] was 2.42 µM (inactive), the GI50 [16] was 0.67 µM (active) and the GI50 [17] was 0.144 µM (active). The GI50 [18] was 1.7 µM (inactive) and the GI50 [19] was 4.05 µM (inactive).
For `O=C1O[B-](c2ccccc2)(c2ccccc2)[NH+]2CCCC12` (stereo not drawn), the GI50 [1] was > 100 µM (inactive), the GI50 [2] was 74 µM (inactive) and the GI50 [3] was > 100 µM (inactive). For the same compound, the GI50 [4] was 47 µM (inactive), the GI50 [5] was 35 µM (inactive) and the GI50 [6] was 50.7 µM (inactive). The GI50 [7] was > 100 µM (inactive), the GI50 [8] was 38.7 µM (inactive) and the GI50 [9] was > 100 µM (inactive). For the same compound, the GI50 [10] was > 100 µM (inactive), the GI50 [12] was > 100 µM (inactive) and the GI50 [13] was > 100 µM (inactive). The GI50 [14] was 56.6 µM (inactive), the GI50 [20] was 55.7 µM (inactive) and the GI50 [15] was > 100 µM (inactive). The GI50 [16] was 84.7 µM (inactive), the GI50 [17] was 64.7 µM (inactive) and the GI50 [18] was 97.7 µM (inactive). The GI50 [19] was > 100 µM (inactive).
With `O=C1c2ccccc2C(=O)c2c(NCCNC(=O)C3CCCN3)ccc(NCCNC(=O)C3CCCN3)c21` (stereo not drawn) the GI50 [1] was 18.8 µM (inactive), the GI50 [2] was 52.8 µM (inactive) and the GI50 [3] was 45 µM (inactive). The GI50 [4] was 2.65 µM (inactive), the GI50 [5] was 67.9 µM (inactive) and the GI50 [6] was 0.219 µM (active). The GI50 [7] was 44.1 µM (inactive), the GI50 [8] was 69.8 µM (inactive) and the GI50 [9] was 62.7 µM (inactive). For the same compound, the GI50 [10] was 23.7 µM (inactive), the GI50 [11] was 30.8 µM (inactive) and the GI50 [12] was 0.0415 µM (active). For the same compound, the GI50 [13] was > 100 µM (inactive), the GI50 [14] was 37.1 µM (inactive) and the GI50 [15] was > 100 µM (inactive). The GI50 [16] was > 100 µM (inactive), the GI50 [17] was 19.9 µM (inactive) and the GI50 [18] was > 100 µM (inactive). For the same compound, the GI50 [19] was > 100 µM (inactive).
`O=C(CC(C(=O)c1ccsc1)c1ccccc1)c1cccs1` (stereo not drawn) was tested, and the GI50 [1] was 80.5 µM (inactive), the GI50 [2] was 22 µM (inactive) and the GI50 [3] was > 100 µM (inactive). For the same compound, the GI50 [4] was 44.5 µM (inactive), the GI50 [6] was > 100 µM (inactive) and the GI50 [8] was 96.8 µM (inactive). For the same compound, the GI50 [9] was > 100 µM (inactive), the GI50 [10] was 22.2 µM (inactive) and the GI50 [11] was 33 µM (inactive). For the same compound, the GI50 [13] was 55 µM (inactive), the GI50 [14] was 58.7 µM (inactive) and the GI50 [20] was 77.6 µM (inactive). For the same compound, the GI50 [15] was 33.3 µM (inactive), the GI50 [16] was 22.5 µM (inactive) and the GI50 [17] was 41.6 µM (inactive). The GI50 [19] was > 100 µM (inactive).
With `COc1cc(C=C2N=C(c3ccccc3)N(n3c(-c4ccccc4)nc4ccccc4c3=O)C2=O)cc(OC)c1OC` the GI50 [1] was 48.5 µM (inactive), the GI50 [2] was 19.1 µM (inactive) and the GI50 [3] was 13.6 µM (inactive). The GI50 [4] was 22.2 µM (inactive), the GI50 [5] was 31.1 µM (inactive) and the GI50 [6] was 21.8 µM (inactive). For the same compound, the GI50 [7] was 24.7 µM (inactive), the GI50 [8] was 21.3 µM (inactive) and the GI50 [9] was 32.5 µM (inactive). The GI50 [10] was 21.9 µM (inactive), the GI50 [11] was 22 µM (inactive) and the GI50 [12] was 21.6 µM (inactive). For the same compound, the GI50 [13] was 27.4 µM (inactive), the GI50 [14] was 15.8 µM (inactive) and the GI50 [15] was 19.5 µM (inactive). The GI50 [16] was 38.9 µM (inactive), the GI50 [17] was 20.1 µM (inactive) and the GI50 [18] was 21.1 µM (inactive). For the same compound, the GI50 [19] was 35.4 µM (inactive).
`N#CS/C(Cl)=C(/C(Cl)=C(Cl)Cl)[N+](=O)[O-]` was tested, and the GI50 [1] was 33 µM (inactive), the GI50 [2] was 33.3 µM (inactive) and the GI50 [3] was > 100 µM (inactive). The GI50 [4] was 25.4 µM (inactive), the GI50 [5] was 35.2 µM (inactive) and the GI50 [6] was 28.2 µM (inactive). The GI50 [7] was 1.89 µM (inactive), the GI50 [8] was 21.9 µM (inactive) and the GI50 [9] was 37.5 µM (inactive). For the same compound, the GI50 [10] was 52.5 µM (inactive), the GI50 [11] was 29.9 µM (inactive) and the GI50 [12] was 19.6 µM (inactive). The GI50 [13] was 48.3 µM (inactive), the GI50 [14] was 16.6 µM (inactive) and the GI50 [20] was 79.6 µM (inactive). The GI50 [15] was 53.2 µM (inactive), the GI50 [16] was 28.4 µM (inactive) and the GI50 [19] was > 100 µM (inactive).
